For data set [1], the system named is Serratia marcescens IAM 1223. Kind of data set: Antibacterial activity, agar plate dilution method: S. marcescens IAM 1223. In kind it is cell-based. Particulars: Mueller-Hinton agar, 10^6 cells/ml, 37° C., 18 to 24 hours. The procedure: (§1) Antibacterial activity of the present compound was examined by agar plate dilution method while following the standard method of Japan Society of Chemotherapy and using the following strain: 6. Serratia marcescens IAM 1223 Namely, after inoculating each bacteria on Mueller-Hinton culture medium, the inoculum was incubated for 18 to 48 hours at 37° C. and after adjusting the number of cells of each bacteria so as to contain 10^6 in one ml, the thus prepared specimen was used as the test bacterial liquid. Each of the present substances (the substance in Example 1 and the substance in Example 2) was dispersed in aqueous physiological saline solution at a predetermined concentration and the thus prepared dispersion was added to 9 times by volume of the culture medium for examining sensitivity (Mueller-Hinton culture medium) to prepare agar plates. On each agar plate, each of the test bacterial liquid was smeared at a width of about 2 cm, and the thus smeared agar plate was incubated for 18 to 24 hours at 37° C.

Data set [2] deals with Staphylococcus aureus IAM 1011. Kind of data set: in vitro. In kind it is in vitro ADME. Here is the method: As a model experiment for verifying the stability of the present compound in Example 1 in the living body, the following procedures were adopted. The same test solution of the present compound as in Example 6 was prepared by mixing 0.1 ml of the dispersion of the present compound and 0.9 ml of S-9 mix, and shaking the mixture for 20 min at 37° C. As a control, a mixture of 0.1 ml of the dispersion of the present compound and 0.9 ml of the 0.2M phosphoric acid buffer was shaken for 20 min at 37° C. As the test bacteria, Staphylococcus aureus IAM 1011 was inoculated in Mueller-Hinton culture medium, and after incubating the inoculum for 18 hours at 37° C., the number of bacteria in the medium was adjusted to 10^8 /ml and the thus adjusted, cultured medium was mixed with 50 times by volume of Mueller-Hinton culture medium. After preparing an agar plate from the mixture, a penicillin cup of 8 mm in diameter was placed on the agar plate, and 0.1 ml of the test solution prepared above was put into the cup. After leaving the thus prepared agar plate for 2 hours at 4° C., the agar plate was subjected to culture for 18 hours at 37° C. to measure the diameter of a proliferation-inhibiting circle appearing on the agar plate. From a calibration curve preliminarily prepared between the concentration of the present compound and the diameter of the proliferation-inhibiting circle, the concentration of the present compound in the test solution and the control was obtained. By using the thus obtained concentration, the rate of retaining the antibacterial activity (Rate (%)) was calculated from the following formula and is shown in Table 5. [formula] As a comparative experiment, the same precedures were carried out except for using Cefotax (a commercialized cephalosporin derivative sold by CHUGAI Pharmaceuticla Co., Ltd., which is represented by the following formula), [drawing 21] instead of the present compound produced in Example 1.

For another data set, the system named is Escherichia coli W 3636. Kind of data set: Antibacterial activity, agar plate dilution method: E. coli W 3636. The format is cell-based. Particulars: Mueller-Hinton agar, 10^6 cells/ml, 37° C., 18 to 24 hours. The procedure: Antibacterial activity of the present compound was examined by agar plate dilution method while following the standard method of Japan Society of Chemotherapy and using the following strain:
3. Escherichia coli W 3636
Namely, after inoculating each bacteria on Mueller-Hinton culture medium, the inoculum was incubated for 18 to 48 hours at 37° C. and after adjusting the number of cells of each bacteria so as to contain 10^6 in one ml, the thus prepared specimen was used as the test bacterial liquid.
Each of the present substances (the substance in Example 1 and the substance in Example 2) was dispersed in aqueous physiological saline solution at a predetermined concentration and the thus prepared dispersion was added to 9 times by volume of the culture medium for examining sensitivity (Mueller-Hinton culture medium) to prepare agar plates.
On each agar plate, each of the test bacterial liquid was smeared at a width of about 2 cm, and the thus smeared agar plate was incubated for 18 to 24 hours at 37° C.

The subject of data set [3] is Proteus vulgaris IAM 1025. Kind of data set: Antibacterial activity, agar plate dilution method: P. vulgaris IAM 1025. The format is cell-based. Conditions: Mueller-Hinton agar, 10^6 cells/ml, 37° C., 18 to 24 hours. Here is the method:
as §1, with “4. Proteus vulgaris” for “6. Serratia marcescens”, “1025” for “1223”

For data set [4], the system named is Pseudomonas aeruginosa IAM 1514. Description: Antibacterial activity, agar plate dilution method: P. aeruginosa IAM 1514. In kind it is cell-based. Particulars: Mueller-Hinton agar, 10^6 cells/ml, 37° C., 18 to 24 hours. Here is the method:
as §1, with “5. Pseudomonas aeruginosa” for “6. Serratia marcescens”, “1514” for “1223”

Each structure is given as a SMILES string.

With `CO/N=C(\C(=O)N[C@@H]1C(=O)N2C(C(=O)OCOC(=O)C(C)(C)C)=C(CSc3nnc(C)s3)CS[C@H]12)c1csc(NC(=O)C(Cl)Cl)n1` [Example 2], the “minimal inhibitory concentration (MIC), S. marcescens IAM 1223” value in data set [1] is not below 100. Also, the “Rate of retaining the antibacterial activity (in words)” value in data set [2] is “the same result as that obtained in using the present compound produced in Example 1”. The “minimal inhibitory concentration (MIC), E. coli W 3636” value with Escherichia coli W 3636 is not below 100. In addition, the “minimal inhibitory concentration (MIC), Pro. vulgaris IAM 1025” value in data set [3] came to 50. In data set [4], the “minimal inhibitory concentration (MIC), P. aeruginosa IAM 1514” value is listed as not below 100.

As for `CO/N=C(\C(=O)N[C@@H]1C(=O)N2C(C(=O)O)=C(CSc3nnc(C)s3)CS[C@H]12)c1csc(NC(=O)C(Cl)Cl)n1` [Example 1, 7β-[2-(2-dichloroacetamido-4-thiazolyl)-(Z)-2-methoxyiminoacetamido]-3-[(2-methyl-1,3,4-thiadiazol-5-yl)thiomethyl]-3-cephem-4-carboxylic acid], the “minimal inhibitory concentration (MIC), S. marcescens IAM 1223” value in data set [1] is given as 0.4. Also, the “Rate of retaining the antibacterial activity (in words)” value in data set [2] is reported as “superior to a conventional commerciallized cephalosporin derivative”. Further, in the data set with Escherichia coli W 3636, the “minimal inhibitory concentration (MIC), E. coli W 3636” value is recorded as 0.4. The “minimal inhibitory concentration (MIC), Pro. vulgaris IAM 1025” value in data set [3] is 0.05. The “minimal inhibitory concentration (MIC), P. aeruginosa IAM 1514” value in data set [4] came to 50.
